Measurements reported in ChEMBL document CHEMBL5532634, “Oxazolidinone: A promising scaffold for the development of antibacterial drugs” (Eur J Med Chem, 2023).
Converted amounts (≈) assume the structure as drawn.

Columns and labels:
Staphylococcus aureus [1] = experiment: Antibacterial activity against Staphylococcus aureus ATCC 29213 assessed as bacterial growth inhibition incubated for 24 hrs by broth dilution method; type: functional
Staphylococcus aureus [2] = experiment: Antibacterial activity against Methicillin-resistant Staphylococcus aureus assessed as reduction in microbial growth by Muller Hinton broth based dilution assay; type: functional
HT-29 = experiment: Anticancer activity against human HT-29 cells assessed as inhibition of cell proliferative measured after 48 hrs by MTT assay; type: functional, cell-based; settings: HT-29, 48 h
MCF7 = experiment: Anticancer activity against human MCF7 cells assessed as inhibition of cell proliferation measured after 48 hrs by MTT assay; type: functional, cell-based; settings: MCF7, 48 h
Staphylococcus aureus [3] = experiment: Antibacterial activity against Staphylococcus aureus ATCC 29213 assessed as reduction in bacterial growth incubated for 24 hrs by Mueller Hinton Agar based plate analysis; type: functional
Staphylococcus aureus [4] = experiment: Antibacterial activity against Linezolid-resistant Staphylococcus aureus assessed as reduction in bacterial growth; type: functional
Enterococcus faecium [5] = experiment: Antibacterial activity against Linezolid-resistant Enterococcus faecium assessed as reduction in bacterial growth; type: functional
Staphylococcus aureus [6] = experiment: Antibacterial activity against Methicillin-resistant Staphylococcus aureus assessed as inhibition of bacterial growth; type: functional
[7] = Clearance in CF1 mouse; type: ADME; settings: in vivo
Staphylococcus aureus [8] = experiment: Antibacterial activity against methicillin-susceptible Staphylococcus aureus assessed as inhibition of bacterial growth; type: functional
[9] = test system: Mycobacterium tuberculosis; experiment: Antimycobacterial activity against Mycobacterium tuberculosis H37Rv assessed as reduction in bacterial cell growth by resazurin reduction method; type: functional
[10] = test system: Staphylococcus epidermidis; experiment: Antibacterial activity against Staphylococcus epidermidis ATCC 12228 assessed as reduction in bacterial growth measured after 24 hrs by broth microdilution method; type: functional
Escherichia coli = experiment: Antibacterial activity against Escherichia coli; type: functional
Streptococcus pneumoniae [11] = experiment: Antibacterial activity against Streptococcus pneumoniae; type: functional
Staphylococcus aureus [12] = experiment: Antibacterial activity against methicillin-resistant Staphylococcus aureus ATCC 4330 assessed as reduction in microbial growth incubated for 18 hrs by broth microdilution method; type: functional
Streptococcus pneumoniae [13] = experiment: Antibacterial activity against Streptococcus pneumoniae ATCC 49619 assessed as inhibition of bacterial growth measured after 24 hrs by MH broth based assay; type: functional
[14] = test system: Staphylococcus epidermidis; experiment: Antibacterial activity against methicillin-resistant Staphylococcus epidermidis ATCC 12228 assessed as reduction in microbial growth incubated for 18 hrs by broth microdilution method; type: functional
Staphylococcus aureus [15] = experiment: Antibacterial activity against vancomycin-resistant Staphylococcus aureus clinical isolate 1 assessed as inhibition of bacterial growth by broth microdilution method; type: functional
Enterococcus faecium [16] = experiment: Antibacterial activity against Enterococcus faecium ATCC 19434 assessed as reduction in microbial growth after 24 hrs by two-fold serial dilution method; type: functional
Enterococcus faecalis [17] = experiment: Antibacterial activity against Enterococcus faecalis ATCC 29212 assessed as reduction in microbial growth after 24 hrs by two-fold serial dilution method; type: functional
Staphylococcus aureus [18] = experiment: In vivo Antibacterial activity against Methicillin-resistant Staphylococcus aureus in PO dosed mouse infected model assessed as reduction in bacterial load; type: functional
Enterococcus faecalis [19] = experiment: Antibacterial activity against Enterococcus faecalis UC9217 assessed as reduction in bacterial growth by broth microdilution method; type: functional
[20] = test system: Staphylococcus epidermidis; experiment: Antibacterial activity methicillin-resistant Staphylococcus epidermidis UC12084 assessed as reduction in bacterial growth by broth microdilution method; type: functional
Moraxella catarrhalis = experiment: Antibacterial activity against Moraxella catarrhalis UC30610 assessed as reduction in bacterial growth by broth microdilution method; type: functional
Haemophilus influenzae = experiment: Antibacterial activity against Haemophilus influenzae UC30063 assessed as reduction in bacterial growth by broth microdilution method; type: functional
Staphylococcus aureus [21] = experiment: Antibacterial activity against vancomycin-resistant Staphylococcus aureus assessed as bacterial growth inhibition measured after 16 to 18 hrs by serial dilution method; type: functional; settings: time 16-18 hrs
Staphylococcus aureus [22] = experiment: Antibacterial activity against fluoroquinolone/methicillin resistant Staphylococcus aureus clinical isolate 19-26 assessed as bacterial growth inhibition measured after 16 to 18 hrs by serial dilution method; type: functional; settings: time 16-18 hrs
Staphylococcus aureus [23] = experiment: Antibacterial activity against Staphylococcus aureus ATCC 29213 assessed as reduction in microbial growth measured after 24 hrs by broth microdilution analysis; type: functional

Q: Which MIC (Staphylococcus aureus [1]) does the source give for CO/C(S)=N\C[C@H]1CN(c2cc(F)c3c(c2)OC[C@@H]2CCCN32)C(=O)O1 here?
A: 0.5 µg/mL (≈ 1.31 µM)

Q: For O=C1O[C@@H](Cn2ccnn2)CN1c1ccc(N2CCN(S(=O)(=O)c3cccc([N+](=O)[O-])c3)CC2)c(F)c1, which MIC (Staphylococcus aureus [2]) is on record?
A: 0.5 µg/mL

Q: For O=C1NC2(CO1)O/C(=C\c1ccc(Cl)cc1)C(=O)N2CCCNc1ccnc2cc(Cl)ccc12 (stereo unspecified), which IC50 (HT-29) is on record?
A: 32.4 µM

Q: What about the IC50 (MCF7) of the same compound?
A: 16.1 µM

Q: With O=C1O[C@@H](Cn2ccnn2)CN1c1ccc(N2CCN(S(=O)(=O)c3ccc(Cl)cc3)CC2)c(F)c1 as the compound, how does the MIC (Staphylococcus aureus [2]) read?
A: 0.5 µg/mL

Q: With CC(=O)NC[C@H]1CN(c2ccc3c(c2)OC[C@@H]2CCCN32)C(=O)O1 as the compound, how does the MIC (Staphylococcus aureus [3]) read?
A: 4 µg/mL (≈ 12.1 µM)

Q: What does the source list for CC(=O)NC[C@H]1CN(c2ccc(N3CCN(c4c(F)cc5c(=O)c(C(=O)O)cn6c5c4OCC6C)CC3)c(F)c2)C(=O)O1 (stereo partly specified)?
A: MIC (Staphylococcus aureus [4]): 2 µg/mL (≈ 3.35 µM); MIC (Enterococcus faecium [5]): 0.5 µg/mL (≈ 0.837 µM)

Q: With CC(=O)NC[C@H]1CN(c2ccc(N3CCOCC3)c(F)c2)C(=O)O1 [LINEZOLID] as the compound, how does the MIC (Staphylococcus aureus [6]) read?
A: 1 µg/mL (≈ 2.96 µM)

Q: What about the clearance [7] of the same compound?
A: 10.5 mL/min/kg

Q: And the MIC (Staphylococcus aureus [8])?
A: 1 µg/mL (≈ 2.96 µM)

Q: Which MIC (Staphylococcus aureus [1]) does the source give for C/C(S)=N\C[C@H]1CN(c2cc(F)c3c(c2)OC[C@@H]2CCCN32)C(=O)O1 here?
A: 0.5 µg/mL (≈ 1.37 µM)

Q: For CN1CCN(c2ccc(N3C[C@H](CO)OC3=O)cc2F)C=N1 [DELPAZOLID], which MIC [9] is on record?
A: 0.5 µg/mL (≈ 1.62 µM)

Q: Which MIC [10] does the source give for O=C([C@H](O)CO)N1CC=C(c2ccc(N3C[C@H](COc4cnsn4)OC3=O)cc2F)CC1 here?
A: 0.13 µg/mL (≈ 0.28 µM)

Q: With O=C(NO)[C@@H]1CN(c2ccc(C#CC#CC3CC3)c(F)c2)C(=O)O1 as the compound, how does the MIC (Escherichia coli) read?
A: 0.004 µg/mL (≈ 0.0122 µM)

Q: What about the MIC (Streptococcus pneumoniae [11]) of the same compound?
A: 0.004 µg/mL (≈ 0.0122 µM)

Q: What does the source list for Cn1nnc(-c2ccc(-c3ccc(N4C[C@H](COP(=O)(O)O)OC4=O)cc3F)cn2)n1 [TEDIZOLID PHOSPHATE]?
A: MIC50 (Staphylococcus aureus [12]): 0.12 µg/mL; MIC (Streptococcus pneumoniae [13]): 0.25 µg/mL; MIC90 [14]: 0.12 µg/mL; MIC (Staphylococcus aureus [15]): 0.25 µg/mL; MIC (Enterococcus faecium [16]): 0.25 µg/mL; MIC (Enterococcus faecalis [17]): 0.25 µg/mL

Q: For CC(=O)NC[C@H]1CN(c2ccc(-n3cc(C#N)nn3)c(F)c2)C(=O)O1, which ED50 (Staphylococcus aureus [18]) is on record?
A: 1.2 mg/kg

Q: And the MIC (Enterococcus faecalis [19])?
A: 0.125 µg/mL (≈ 0.363 µM)

Q: What about the MIC [20] of the same compound?
A: 0.125 µg/mL (≈ 0.363 µM)

Q: And the MIC (Moraxella catarrhalis)?
A: 2 µg/mL (≈ 5.81 µM)

Q: What about the MIC (Haemophilus influenzae) of the same compound?
A: 2 µg/mL (≈ 5.81 µM)

Q: For O=C1C=CN(c2c(F)cc(N3C[C@H](CNc4ccon4)OC3=O)c(F)c2F)CC1 [CONTEZOLID], which MIC (Staphylococcus aureus [21]) is on record?
A: 0.5 µg/mL (≈ 1.22 µM)

Q: What about the MIC (Staphylococcus aureus [22]) of the same compound?
A: 0.125 µg/mL (≈ 0.306 µM)

Q: With O=C(CO)N1CC=C(c2ccc(N3C[C@H](COc4cnsn4)OC3=O)cc2F)CC1 as the compound, how does the MIC [10] read?
A: 0.13 µg/mL (≈ 0.299 µM)

Q: What does the source list for CC(=O)NC[C@H]1CN(c2ccc(N3CCN(c4cc5c(cc4F)c(=O)c(C(=O)O)cn5C4CC4)CC3)c(F)c2)C(=O)O1?
A: MIC (Staphylococcus aureus [4]): 2 µg/mL (≈ 3.44 µM); MIC (Enterococcus faecium [5]): 0.5 µg/mL (≈ 0.86 µM)

Q: With O=C([C@H](O)CO)N1CC=C(c2c(F)cc(N3C[C@H](COc4ccon4)OC3=O)cc2F)CC1 as the compound, how does the MIC (Staphylococcus aureus [23]) read?
A: 0.25 µg/mL

Q: For N=C(S)NC[C@H]1CN(c2cc(F)c3c(c2)OC[C@@H]2CCCN32)C(=O)O1, which MIC (Staphylococcus aureus [1]) is on record?
A: 0.5 µg/mL (≈ 1.36 µM)

Q: For Nc1cccc(S(=O)(=O)N2CCN(c3ccc(N4C[C@H](Cn5ccnn5)OC4=O)cc3F)CC2)c1, which MIC (Staphylococcus aureus [2]) is on record?
A: 0.5 µg/mL

Q: Which MIC (Staphylococcus aureus [2]) does the source give for O=C1O[C@@H](Cn2ccnn2)CN1c1ccc(N2CCN(S(=O)(=O)c3cccc(F)c3)CC2)c(F)c1 here?
A: 0.5 µg/mL
